# Test system: PBMCs
# Test: IL-2 ELISpot of in vitro expanded PBMCs
# Format: cell-based, human
# Details: peptides from other AAV serotypes; PBMCs from four healthy individuals; Figure S11
sequence,measurement,value
FTVDNNGLY [AAV1 (6)_713-721 N718],IL-2 response / secretion,decreased IL-2 response

# Reference: PMC8829777 (Molecular Therapy. Methods & Clinical Development, 2022)
